From patent US20250188082A1, “Use of Hypoxanthine Compound In Preparation of Drug For Treating Pulmonary Fibrosis” (Sichuan Yiasuo Pharmaceutical Technology Co., Ltd., priority 2022, published 2025)

How the values were obtained:
Type in all cases: in vivo, C57BL/6 mice
[1] = system: bleomycin-induced pulmonary fibrosis model; test: Advanced pulmonary fibrosis: bleomycin-induced model, dosing from three weeks after modelling; details: for Leucocyte / Lymphocyte / Neutrophil / Ashcroft scores: advanced pulmonary fibrosis, 120 mg/kg/d intragastric, 14 days, from three weeks after model; for Leucocyte / Lymphocyte / Neutrophil: blood, Day 15, twice every day; for Ashcroft scores: lung tissue HE staining; for inhibition (anti-inflammatory) effect on leucocytes, neutrophils and lymphocytes in blood: mice with advanced pulmonary fibrosis, result in words
[2] = system: influenza A virus-induced pulmonary fibrosis model (FM1 strain of influenza A (H1N1) virus); test: Influenza A virus-induced pulmonary fibrosis model; details: 120 mg/kg/d intragastric, 14 days; for Ashcroft scores: influenza A virus + bleomycin, lung tissue HE; for IL-1β / IL-6 / NF-κB / TNF-α: serum, influenza A (H1N1) FM1 + bleomycin, from two weeks after model
Excerpt: Experimental method: an in-vivo influenza A virus-induced pulmonary fibrosis model was established: C57BL/6 mice (with weights being 22-25 g) were randomly and evenly divided into a plurality of groups, including blank control group, model group, Nintedanib positive control group, hypoxanthine analogue A group, hypoxanthine analogue B group, hypoxanthine analogue C group, compound 1 group, compound 2 group . . . compound 12 group, with 9 mice in each group. On Day 1, the mice in blank control group were instilled with normal saline nasally, and the mice in other groups were all infected with a FM1 strain of an influenza A (H1N1) virus 30 (μL) through nasal instillation. On Day 2, the mice received 5 mg/kg bleomycin through tracheas to induce their pulmonary fibrosis. After the model was established for two weeks, the mice in each group were intragastrically administrated for intervention for consecutive 14 days; the mice in blank control group and model group intragastrically received the same dosage of the normal saline as those in drug groups; the mice in Nintedanib positive control group received Nintedanib (120 mg/kg); the mice in hypoxanthine analogue A group, hypoxanthine analogue B group and hypoxanthine analogue C group respectively received hypoxanthine analogue A (120 mg/kg/d), hypoxanthine analogue B (120 mg/kg/d) and hypoxanthine analogue C (120 mg/kg/d); and the mice in compound 1 group, compound 2 group . . . compound 12 group respectively received compound 1 (120 mg/kg/d), compound 2 (120 mg/kg/d) . . . compound 12 (120 mg/kg/d) prepared in example 1. After administration for consecutive 14 days, the mice were observed every day, and their weights and death conditions were recorded. After administration, blood was taken from eyeballs for immediately detecting the expression levels of NF-κB, TNF-α, IL-1 and IL-6 in serum, and lung tissues were taken for HE detection and Ashcroft scoring.

[3] = system: novel coronavirus-induced pulmonary fibrosis model (COVID-19 novel coronavirus strains); test: Novel coronavirus-induced pulmonary fibrosis model; details: 120 mg/kg/d intragastric, 14 days; for Ashcroft scores: novel coronavirus + bleomycin, lung tissue HE; for IL-1β / IL-6 / NF-κB / TNF-α: serum, COVID-19 novel coronavirus + bleomycin, from two weeks after model
Excerpt: Experimental method: an in-vivo novel coronavirus-induced pulmonary fibrosis model was established: C57BL/6 mice (with weights being 22-25 g) were randomly and evenly divided into a plurality of groups, including blank control group, model group, Nintedanib positive control group, hypoxanthine analogue A group, hypoxanthine analogue B group, hypoxanthine analogue C group, compound 1 group, a compound 2 group . . . compound 12 group, with 9 mice in each group. On Day 1, the mice in blank control group were instilled with normal saline nasally, and the mice in other groups were all infected with COVID-19 novel coronavirus strains (30 μL) through nasal instillation. On Day 2, the mice received 5 mg/kg bleomycin through tracheas to induce their pulmonary fibrosis. After the model was established for two weeks, the mice in each group were intragastrically administrated for intervention for consecutive 14 days; the mice in blank control group and model group intragastrically received the same dosage of normal saline as those in drug groups; the mice in Nintedanib positive control group received Nintedanib (120 mg/kg); the mice in hypoxanthine analogue A group, hypoxanthine analogue B group and hypoxanthine analogue C group respectively received hypoxanthine analogue A (120 mg/kg/d), hypoxanthine analogue B (120 mg/kg/d) and hypoxanthine analogue C (120 mg/kg/d); and the mice in compound 1 group, compound 2 group . . . compound 12 group respectively received compound 1 (120 mg/kg/d), compound 2 (120 mg/kg/d) . . . compound 12 (120 mg/kg/d) prepared in example 1. After administration for consecutive 14 days, the mice were observed every day, and their weights and death conditions were recorded. After administration, blood was taken from eyeballs for immediately detecting the expression levels of NF-κB, TNF-α, IL-1 and IL-6 in serum, and lung tissues were taken for HE detection and Ashcroft scoring.

[4] = system: bleomycin-induced pulmonary fibrosis model; test: Comparison with comparative drugs: bleomycin-induced model, hydroxyproline and TGF-β; details: 120 mg/kg/d intragastric, twice every day, 14 days, from two weeks after model; Day 15
[5] = system: mycoplasma-induced pulmonary fibrosis model (MPFH strain); test: Mycoplasma-induced pulmonary fibrosis model; details: 120 mg/kg/d intragastric, 14 days; for Leucocyte / Lymphocyte / Neutrophil: MPFH mycoplasma + bleomycin, once a day, from two weeks after model; for Ashcroft scores: mycoplasma + bleomycin, lung tissue HE
Excerpt: Experimental method: an in-vivo mycoplasma-induced pulmonary fibrosis model was established: C57BL/6 mice (with weights being 22-25 g) were randomly and evenly divided into a plurality of groups, including blank control group, model group, Nintedanib positive control group, hypoxanthine analogue A group, hypoxanthine analogue B group, hypoxanthine analogue C group, compound 1 group, compound 2 group . . . compound 12 group, with 9 mice in each group. Before a model was established, the mice were anesthetized with diethyl ether. In addition to that the mice in blank control group with instilled with 100 μL of normal saline nasally, the mice in other groups with slowly instilled with an equal volume of a MPFH strain solution (containing 1×10^7 mL^−1 MPFH strain) to the nasal cavity, for consecutive 3 days, and inhaled the MPFH strain solution into bronchi. After instillation with mycoplasmas through tracheas, the mice received 5 mg/kg bleomycin through tracheas to induce their pulmonary fibrosis. After the model was established for two weeks, the mice in each group were intragastrically administrated for intervention for consecutive 14 days; the mice in blank control group and model group intragastrically received an equal dosage of normal saline as those in drug groups; the mice in Nintedanib positive control group received Nintedanib (120 mg/kg); the mice in hypoxanthine analogue A group, hypoxanthine analogue B group and hypoxanthine analogue C group respectively received hypoxanthine analogue A (120 mg/kg/d), hypoxanthine analogue B (120 mg/kg/d) and hypoxanthine analogue C (120 mg/kg/d); and the mice in compound 1 group, compound 2 group . . . compound 12 group respectively received compound 1 (120 mg/kg/d), compound 2 (120 mg/kg/d) . . . compound 12 (120 mg/kg/d) prepared in example 1. The mice were administrated once a day to be treated for consecutive 14 days. The mice were observed every day, and their weights and death conditions were recorded. On the last day of administration, the mice were sacrificed; and blood was taken from eyeballs and kept at −80° C. for detecting blood routine indexes. Meanwhile, lungs were lavaged with normal saline and separated to collect lavage fluids for detecting counts and classes of leucocytes; and lung tissues were taken for HE straining and Ashcroft scoring on the extent of pulmonary fibrosis.

Row | Structure (SMILES) | Leucocyte [1] | Lymphocyte [1] | Neutrophil [1] | Ashcroft scores [1] | Ashcroft scores [2] | IL-1β [2] | IL-6 [2] | NF-κB [2] | TNF-α [2] | Ashcroft scores [3] | IL-1β [3] | IL-6 [3] | NF-κB [3] | TNF-α [3] | Hydroxyproline in bronchoalveolar lavage fluids [4] | Hydroxyproline in lung tissues [4] | TGF-β in bronchoalveolar lavage fluids [4] | TGF-β in lung tissues [4] | Leucocyte [5] | Lymphocyte [5] | also measured
1 | CC(C)Oc1ncnc2c1ncn2C(C)C [Compound 3] | 3.98 10^9/L | 5.18 10^9/L | 1.19 10^9/L | 0.87 | 1.18 | 26.3 pg/mL | 62.9 pg/mL | 24.3 pg/mL | 86.1 pg/mL | 1.19 | 36.3 pg/mL | 65.3 pg/mL | 24.7 pg/mL | 63.5 pg/mL | 0.70 ± 0.05 µg/mg | 1.31 ± 0.07 µg/mg | 3.95 ± 0.19 µg/L | 24.15 ± 2.04 µg/L | 6.83 10^9/L | 72.33 10^9/L | Neutrophil [5]: 22.12 10^9/L; Ashcroft scores [5]: 0.96
2 | CC(C)Oc1ncnc2c1N(C(C)C)CN2C(C)C [Compound 10] | 4.26 10^9/L | 5.71 10^9/L | 1.38 10^9/L | 1.16 | 1.30 | 29.3 pg/mL | 64.9 pg/mL | 27.7 pg/mL | 89.6 pg/mL | 1.67 | 38.1 pg/mL | 67.5 pg/mL | 26.5 pg/mL | 68.9 pg/mL | 0.74 ± 0.06 µg/mg | 1.37 ± 0.08 µg/mg | 4.21 ± 0.18 µg/L | 24.12 ± 2.25 µg/L | 6.18 10^9/L | 72.54 10^9/L | Neutrophil [5]: 21.11 10^9/L; Ashcroft scores [5]: 1.45
3 | CCOc1ncnc2c1ncn2C(C)C [Compound 8] | 4.59 10^9/L | 5.73 10^9/L | 1.42 10^9/L | 1.21 | 1.28 | 28.6 pg/mL | 66.0 pg/mL | 26.8 pg/mL | 89.9 pg/mL | 1.24 | 38.4 pg/mL | 68.2 pg/mL | 23.4 pg/mL | 66.7 pg/mL | 0.72 ± 0.06 µg/mg | 1.47 ± 0.10 µg/mg | 4.06 ± 0.18 µg/L | 25.17 ± 2.35 µg/L | 7.26 10^9/L | 72.52 10^9/L | Neutrophil [5]: 23.62 10^9/L; Ashcroft scores [5]: 1.26
4 | CC(C)Oc1ncnc2c1ncn2C [Hypoxanthine analogue B, reference compound] | 71.35 10^9/L | 67.37 10^9/L | 68.34 10^9/L | 6.01 | 6.07 | 329.7 pg/mL | 422.7 pg/mL | 771.9 pg/mL | 341.6 pg/mL | 6.38 | 491.8 pg/mL | 552.3 pg/mL | 741.1 pg/mL | 401.9 pg/mL | 1.81 ± 0.14 µg/mg | 2.97 ± 0.19 µg/mg | 8.95 ± 0.68 µg/L | 91.53 ± 9.56 µg/L | 118.58 10^9/L | 568.05 10^9/L | inhibition (anti-inflammatory) effect on leucocytes, neutrophils and lymphocytes in blood [1]: obviously inferior; Neutrophil [5]: 233.92 10^9/L; Ashcroft scores [5]: 6.30
5 | O=c1[nH]cnc2[nH]cnc12 [Hypoxanthine analogue A, reference compound] | 66.48 10^9/L | 71.65 10^9/L | 67.48 10^9/L | 5.88 | 6.11 | 323.1 pg/mL | 450.9 pg/mL | 780.3 pg/mL | 339.4 pg/mL | 6.13 | 489.0 pg/mL | 554.5 pg/mL | 731.3 pg/mL | 400.5 pg/mL | 1.46 ± 0.13 µg/mg | 2.69 ± 0.12 µg/mg | 9.23 ± 0.26 µg/L | 96.47 ± 8.25 µg/L | 116.79 10^9/L | 567.15 10^9/L | inhibition (anti-inflammatory) effect on leucocytes, neutrophils and lymphocytes in blood [1]: obviously inferior; Neutrophil [5]: 234.53 10^9/L; Ashcroft scores [5]: 6.64
6 | CC(C)n1cnc2nc[nH]c(=O)c21 [Compound 6] | 4.58 10^9/L | 5.94 10^9/L | 1.59 10^9/L | 1.19 | 1.26 | 28.5 pg/mL | 66.1 pg/mL | 27.8 pg/mL | 90.3 pg/mL | 1.34 | 38.7 pg/mL | 67.1 pg/mL | 21.2 pg/mL | 68.3 pg/mL | 0.68 ± 0.07 µg/mg | 1.46 ± 0.07 µg/mg | 3.91 ± 0.18 µg/L | 24.18 ± 2.14 µg/L | 6.05 10^9/L | 71.57 10^9/L | Neutrophil [5]: 22.72 10^9/L; Ashcroft scores [5]: 1.17
